Laboratory results reported in article PMC9338108 (Clinical Drug Investigation, 2022).
“And” between values parts separate entries of the source, which are not always exact repeats. Identical values can stand only once. Like-named read-outs stand apart in the source and are kept apart here.

Experiments:
[1] = Safety assessment Study 114; assay type: in vivo, human; settings: Study 114, N = 20
clinical = settings: human, plasma
[2] = Safety assessment Study 106 Part A; settings: for TEAEs related to individual study drugs: N = 33
[3] = cited from earlier work
[4] = assay type: in vivo, human
[5] = Safety assessment Study 106 Part B; settings: N = 24
[6] = system: P-glycoprotein transporter; settings: ref data on file, G1 Therapeutics; cited from earlier work
cytochrome P450 3A4 = settings: background statement; cited from earlier work
[7] = assay type: in vivo, human; remark: listed apart in the source
[8] = assay type: in vivo, human; remark: listed apart in the source
[9] = cited from earlier work; remark: listed apart in the source
[10] = ref data on file, G1 Therapeutics; cited from earlier work
[11] = metformin 1000 mg oral single dose alone, urine, N = 25, geometric mean (CV%)
[12] = trilaciclib vs trilaciclib alone
[13] = all resolved without intervention

Compound: CCC(C)n1ncn(-c2ccc(N3CCN(c4ccc(OCC5COC(Cn6cncn6)(c6ccc(Cl)cc6Cl)O5)cc4)CC3)cc2)c1=O (centres unmarked) [Itraconazole, itraconazole, reference compound]
- TEAEs related to individual study drugs [1]: 2 (10.0) n (%)

Compound: CN(C)C(=N)N=C(N)N [Metformin, metformin]
- Vd/F (clinical; oral): 556 L
- AUC(0-inf) (clinical; po, 1000 mg): 11900 ng·h/mL
- Cmax (clinical; po, 1000 mg): 1650 ng/mL
- Tmax (metformin 1000 mg oral single dose alone, N = 25, median (range)): 2.50 (1.50–5.00) h
- Ae (total amount of drug excreted in urine) [11]: 342 (25.1) mg
- Fe (percentage of drug excreted in urine) [11]: 34.2 (25.1) %
- geometric mean AUC0–inf higher after coadministration with trilaciclib (metformin vs metformin alone): 64.6%
- geometric mean AUC0–last higher after coadministration with trilaciclib (metformin vs metformin alone): 66.0%
- geometric mean Cmax higher after coadministration with trilaciclib (metformin vs metformin alone): 79.8%
- TEAEs related to individual study drugs [2]: 7 (21.2) n (%)
- AUC0–24 as share of AUC0–inf [3]: approximately 95%

Compound: Cc1ncc2n1-c1ccc(Cl)cc1C(c1ccccc1F)=NC2 [Midazolam, midazolam]
- Vd/F ([4]; human, plasma, oral): 658 L
- AUC(0-inf) ([4]; human, plasma, po, 5 mg): 64.6 ng·h/mL
- AUC(0-t) ([4]; human, plasma, po, 5 mg): 62.1 ng·h/mL
- Cmax ([4]; human, plasma, po, 5 mg): 24.4 ng/mL
- Vd/F ([4]; human, plasma, po, 5 mg): 635 L
- half-life ([4]; human, plasma, po, 5 mg): 341 min
- CL/F ([4]; midazolam 5 mg oral single dose alone, N = 25, geometric mean (CV%)): 77.4 (34.2) L/h
- Tmax ([4]; midazolam 5 mg oral single dose alone, N = 25, median (range)): 0.50 (0.25–1.50) h
- Cmax decrease after multiple IV doses of trilaciclib ([4]; midazolam vs midazolam alone): 16.6%
- geometric mean AUC0–inf higher after coadministration with trilaciclib ([4]; midazolam vs midazolam alone): 4.6%
- geometric mean AUC0–last higher after coadministration with trilaciclib ([4]; midazolam vs midazolam alone): 4.0%
- TEAEs related to individual study drugs [2]: 16 (48.5) n (%)

Compound: CO[C@H]1/C=C/O[C@@]2(C)Oc3c(C)c(O)c4c(O)c(c(/C=N/N5CCN(C)CC5)c(O)c4c3C2=O)NC(=O)/C(C)=C\C=C\[C@H](C)[C@H](O)[C@@H](C)[C@@H](O)[C@@H](C)[C@H](OC(C)=O)[C@@H]1C [Rifampin, rifampin, reference compound]
- TEAEs related to individual study drugs [5]: 19 (79.2) n (%)

Compound: CN1CCN(c2ccc(Nc3ncc4cc5n(c4n3)C3(CCCCC3)CNC5=O)nc2)CC1 [Trilaciclib, trilaciclib]
- substrate of the P-glycoprotein transporter [6]: substrate of the P-glycoprotein transporter
- time-dependent inhibitor of cytochrome P450 3A4 (cytochrome P450 3A4): time-dependent inhibitor of cytochrome P450 3A4
- TEAEs related to individual study drugs [5]: 20 (83.3) n (%)
- Tmax ([7]; human, plasma, intravenous): 28.8 min
- AUC(0-inf) ([7]; human, plasma, iv, 200 mg/m2): 3120 ng·h/mL
- AUC(0-t) ([7]; human, plasma, iv, 200 mg/m2): 3070 ng·h/mL
- Cmax ([7]; human, plasma, iv, 200 mg/m2): 1770 ng/mL
- Tmax ([7]; human, plasma, iv, 200 mg/m2): 24 min
- clearance ([7]; human, plasma, iv, 200 mg/m2): 2120 mL/min
- half-life ([7]; human, plasma, iv, 200 mg/m2): 547 min
- geometric mean AUC0–inf decrease with itraconazole [7, 12]: 14.0% and 13.6%
- geometric mean AUC0–last decrease with itraconazole [7, 12]: 13.3%
- geometric mean Cmax decrease with itraconazole [7, 12]: 28.0%
- Tmax ([8]; human, plasma, intravenous): 30 min
- clearance ([8]; human, plasma, intravenous): 3520 mL/min
- AUC(0-inf) ([8]; human, plasma, iv, 240 mg/m2): 2700 ng·h/mL
- AUC(0-t) ([8]; human, plasma, iv, 240 mg/m2): 2670 ng·h/mL
- Cmax ([8]; human, plasma, iv, 240 mg/m2): 1600 ng/mL
- Tmax ([8]; human, plasma, iv, 240 mg/m2): 25.2 min
- clearance ([8]; human, plasma, iv, 240 mg/m2): 2920 mL/min
- half-life ([8]; human, plasma, iv, 240 mg/m2): 606 min
- geometric mean AUC0–inf decrease with rifampin [8, 12]: 17.3% and 17%
- geometric mean AUC0–last decrease with rifampin [8, 12]: 17.3%
- geometric mean Cmax reduction with rifampin [8, 12]: 19.9%
- TEAEs related to individual study drugs [1]: 9 (45.0) n (%)
- clearance [9]: 158 L/h
- mean terminal half-life (t1/2) [9]: approximately 14 h
- parent molecule recovered in the excreta [9]: less than 10%
- unbound fraction in plasma [10]: approximately 30%
- subjects reporting TEAEs of thrombophlebitis ([2]; 25 subjects enrolled after adjustment of drug administration): 24%
- TEAEs related to individual study drugs [2]: 33 (100) n (%)
- subjects with Grade 3 TEAEs of neutropenia related to trilaciclib [2, 13]: 5 n
- subjects with Grade 4 TEAEs of neutropenia related to trilaciclib [2, 13]: 1 n
- subjects discontinued because of phlebitis in the arm related to trilaciclib administration ([2]; initial eight subjects (Site 1)): eight
